Laboratory results as given in US9012398B2, “Acylated exendin-4 compounds” (priority 2006, dated 2015).
Starred links: 1 amine or outer side, 2 acyl side, 3 side chain; linkers in the order of their positions; H or OH if unused. Residues, ends and D or L forms follow the SMILES beside them. Groups on a side chain read outwards from the residue. *: point of attachment. C18 diacid = O=C(O)CCCCCCCCCCCCCCCCC(=O)*; γGlu = O=C(O)[C@H](CCC(=O)[*:2])N[*:1]; Stearoyl = CCCCCCCCCCCCCCCCCC(=O)*; Palmitoyl = CCCCCCCCCCCCCCCC(=O)*; AEEA = NCCOCCOCC(=O)O

target: T1, human GLP-1 receptor (Homo sapiens, UniProt P43220); assay: Functional receptor assay: cAMP formation in plasma membranes of BHK cells expressing the cloned human GLP-1 receptor (GLP1cAMPma); type: biochemical; settings: not given
T1 construct: expressed in transfected cells; host or cells: BHK cells, clone BHK-467-12A; plasma membrane preparation
T1 sequence (P43220 24-463): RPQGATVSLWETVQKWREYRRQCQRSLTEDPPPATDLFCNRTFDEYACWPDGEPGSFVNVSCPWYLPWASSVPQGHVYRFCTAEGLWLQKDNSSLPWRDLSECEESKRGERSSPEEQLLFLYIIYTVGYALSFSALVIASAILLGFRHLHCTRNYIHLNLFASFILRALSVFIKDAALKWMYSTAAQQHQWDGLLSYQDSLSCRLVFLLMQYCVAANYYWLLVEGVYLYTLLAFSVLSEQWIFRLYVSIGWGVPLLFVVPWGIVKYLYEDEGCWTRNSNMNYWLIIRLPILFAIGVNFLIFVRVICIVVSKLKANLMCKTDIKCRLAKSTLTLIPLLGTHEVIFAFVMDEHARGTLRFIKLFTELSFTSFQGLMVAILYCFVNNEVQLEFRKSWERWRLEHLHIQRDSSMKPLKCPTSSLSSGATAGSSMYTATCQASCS
Procedure: The term “insulinotropic agent” as used herein means a compound which is an agonist of the human GLP-1 receptor, i.e. a compound which stimulates the formation of cAMP in a suitable medium containing the human GLP-1 receptor (one such medium disclosed below). The potency of an insulinotropic agent is determined by calculating the EC50 value from the dose-response curve as described below.
The cells were washed twice in phosphate buffered saline and harvested with Versene. Plasma membranes were prepared from the cells by homogenisation with an Ultraturrax in buffer 1 (20 mM HEPES-Na, 10 mM EDTA, pH 7.4). The homogenate was centrifuged at 48,000×g for 15 min at 4° C. The pellet was suspended by homogenization in buffer 2 (20 mM HEPES-Na, 0.1 mM EDTA, pH 7.4), then centrifuged at 48,000×g for 15 min at 4° C. The washing procedure was repeated one more time. The final pellet was suspended in buffer 2 and used immediately for assays or stored at −80° C.
The functional receptor assay was carried out by measuring cyclic AMP (cAMP) as a response to stimulation by the insulinotropic agent. cAMP formed was quantified by the AlphaScreen™ cAMP Kit (Perkin Elmer Life Sciences). Incubations were carried out in half-area 96-well microtiter plates in a total volume of 50 μL buffer 3 (50 mM Tris-HCl, 5 mM HEPES, 10 mM MgCl2, pH 7.4) and with the following additions: 1 mM ATP, 1 μM GTP, 0.5 mM 3-isobutyl-1-methylxanthine (IBMX), 0.01% Tween-20, 0.1% BSA, 6 μg membrane preparation, 15 μg/mL acceptor beads, 20 μg/mL donor beads preincubated with 6 nM biotinyl-cAMP. […] GTP was freshly prepared for each experiment. The plate was incubated in the dark with slow agitation for three hours at room temperature followed by counting in the Fusion™ instrument (Perkin Elmer Life Sciences). Concentration-response curves were plotted for the individual compounds and EC50 values estimated using a four-parameter logistic model with Prism v. 4.0 (GraphPad, Carlsbad, Calif.).

Structure (SMILES)	EC50 [nM]
CCCCCCCCCCCCCCCCCC(=O)NCCOCCOCC(=O)NCCOCCOCC(=O)NCCOCCOCC(=O)NCCCC[C@H](NC(=O)[C@@H](NC(=O)[C@H](CC(C)C)NC(=O)[C@H](Cc1c[nH]c2ccccc12)NC(=O)[C@H](CCC(=O)O)NC(=O)[C@@H](NC(=O)[C@H](Cc1ccccc1)NC(=O)[C@H](CC(C)C)NC(=O)[C@H](CCCNC(=N)N)NC(=O)[C@@H](NC(=O)[C@H](C)NC(=O)[C@H](CCC(=O)O)NC(=O)[C@H](CCC(=O)O)NC(=O)[C@H](CCC(=O)O)NC(=O)[C@H](CC(C)C)NC(=O)[C@H](CCC(N)=O)NC(=O)[C@H](CCCNC(=N)N)NC(=O)[C@H](CO)NC(=O)[C@H](CC(C)C)NC(=O)[C@H](CC(=O)O)NC(=O)[C@H](CO)NC(=O)[C@@H](NC(=O)[C@H](Cc1ccccc1)NC(=O)[C@@H](NC(=O)CNC(=O)[C@H](CCC(=O)O)NC(=O)CNC(=O)[C@@H](N)Cc1c[nH]cn1)[C@@H](C)O)[C@@H](C)O)C(C)C)[C@@H](C)CC)C(C)C)C(=O)NCC(=O)NCC(=O)N1CCC[C@H]1C(=O)N[C@@H](CO)C(=O)N[C@@H](CO)C(=O)NCC(=O)N[C@@H](C)C(=O)N1CCC[C@H]1C(=O)N1CCC[C@H]1C(=O)N1CCC[C@H]1C(=O)N[C@@H](CO)C(N)=O [Example 3, N-ε^28-(2-(2-(2-(2-(2-(2-(2-(2-(2-(Octadecanoylamino)ethoxy)ethoxy)acetylamino)ethoxy)ethoxy)acetyl-amino)ethoxy)ethoxy)acetyl))[Arg^12,Leu^14,Val^27,Lys^28 Exendin-4(1-39)amide] (H-HGEGTFTSDLSRQLEEEAVRLFIEWLVK([AEEA-AEEA-AEEA-Stearoyl])GGPSSGAPPPS-NH2; N-terminus assumed)	0.025
CCCCCCCCCCCCCCCC(=O)N[C@@H](CCC(=O)NCCOCCOCC(=O)NCCOCCOCC(=O)NCCCC[C@H](NC(=O)[C@@H](NC(=O)[C@H](C)NC(=O)[C@H](CCC(=O)O)NC(=O)[C@H](CCC(=O)O)NC(=O)[C@H](CCC(=O)O)NC(=O)[C@H](CC(C)C)NC(=O)[C@H](CCC(N)=O)NC(=O)[C@H](CCC(N)=O)NC(=O)[C@H](CO)NC(=O)[C@H](CC(C)C)NC(=O)[C@H](CC(=O)O)NC(=O)[C@H](CO)NC(=O)[C@@H](NC(=O)[C@H](Cc1ccccc1)NC(=O)[C@@H](NC(=O)CNC(=O)[C@H](CCC(=O)O)NC(=O)CNC(=O)[C@@H](N)Cc1c[nH]cn1)[C@@H](C)O)[C@@H](C)O)C(C)C)C(=O)N[C@@H](CC(C)C)C(=O)N[C@@H](Cc1ccccc1)C(=O)N[C@H](C(=O)N[C@@H](CCC(=O)O)C(=O)N[C@@H](Cc1c[nH]c2ccccc12)C(=O)N[C@@H](CC(C)C)C(=O)N[C@@H](CCCCN)C(=O)N[C@@H](CCC(N)=O)C(=O)NCC(=O)NCC(=O)N1CCC[C@H]1C(=O)N[C@@H](CO)C(=O)N[C@@H](CO)C(=O)NCC(=O)N[C@@H](C)C(=O)N1CCC[C@H]1C(=O)N1CCC[C@H]1C(=O)N1CCC[C@H]1C(=O)N[C@@H](CO)C(N)=O)[C@@H](C)CC)C(=O)O [Example 48] (H-HGEGTFTSDLSQQLEEEAVK([AEEA-AEEA-γGlu-Palmitoyl])LFIEWLKQGGPSSGAPPPS-NH2; N-terminus assumed)	0.021
CCCCCCCCCCCCCCCCCC(=O)NCCOCCOCC(=O)NCCOCCOCC(=O)NCCOCCOCC(=O)NCCCC[C@H](NC(=O)[C@@H]1CCCN1C(=O)CNC(=O)CNC(=O)[C@H](CCCNC(=N)N)NC(=O)[C@@H](NC(=O)[C@H](CC(C)C)NC(=O)[C@H](Cc1c[nH]c2ccccc12)NC(=O)[C@H](CCC(=O)O)NC(=O)[C@@H](NC(=O)[C@H](Cc1ccccc1)NC(=O)[C@H](CC(C)C)NC(=O)[C@H](CCCNC(=N)N)NC(=O)[C@@H](NC(=O)[C@H](C)NC(=O)[C@H](CCC(=O)O)NC(=O)[C@H](CCC(=O)O)NC(=O)[C@H](CCC(=O)O)NC(=O)[C@H](CC(C)C)NC(=O)[C@H](CCC(N)=O)NC(=O)[C@H](CCCNC(=N)N)NC(=O)[C@H](CO)NC(=O)[C@H](CC(C)C)NC(=O)[C@H](CC(=O)O)NC(=O)[C@H](CO)NC(=O)[C@@H](NC(=O)[C@H](Cc1ccccc1)NC(=O)[C@@H](NC(=O)CNC(=O)[C@H](CCC(=O)O)NC(=O)CNC(=O)[C@@H](N)Cc1c[nH]cn1)[C@@H](C)O)[C@@H](C)O)C(C)C)[C@@H](C)CC)C(C)C)C(=O)N[C@@H](CO)C(=O)NCC(=O)N[C@@H](C)C(=O)N1CCC[C@H]1C(=O)N1CCC[C@H]1C(=O)N1CCC[C@H]1C(=O)N[C@@H](CO)C(N)=O [Example 2] (H-HGEGTFTSDLSRQLEEEAVRLFIEWLVRGGPK([AEEA-AEEA-AEEA-Stearoyl])SGAPPPS-NH2)	0.027

same assay, conditions: cAMP, membranes with human GLP-1 receptor, mean value; read-out: GLP1cAMPma (3693) [EC50 (nM)] Mean Value

Structure (SMILES)	EC50 [nM]
CC[C@H](C)[C@H](NC(=O)[C@H](Cc1ccccc1)NC(=O)[C@H](CC(C)C)NC(=O)[C@H](CCCCNC(=O)COCCOCCNC(=O)COCCOCCNC(=O)CCCCCCCCCCCCCCCCC(=O)O)NC(=O)[C@@H](NC(=O)[C@H](C)NC(=O)[C@H](CCC(=O)O)NC(=O)[C@H](CCC(=O)O)NC(=O)[C@H](CCC(=O)O)NC(=O)[C@H](CC(C)C)NC(=O)[C@H](CCC(N)=O)NC(=O)[C@H](CCCNC(=N)N)NC(=O)[C@H](CO)NC(=O)[C@H](CC(C)C)NC(=O)[C@H](CC(=O)O)NC(=O)[C@H](CO)NC(=O)[C@@H](NC(=O)[C@H](Cc1ccccc1)NC(=O)[C@@H](NC(=O)CNC(=O)[C@H](CCC(=O)O)NC(=O)CNC(=O)[C@@H](N)Cc1c[nH]cn1)[C@@H](C)O)[C@@H](C)O)C(C)C)C(=O)N[C@@H](CCC(=O)O)C(=O)N[C@@H](Cc1c[nH]c2ccccc12)C(=O)N[C@@H](CC(C)C)C(=O)N[C@@H](CCCNC(=N)N)C(=O)N[C@@H](CCC(N)=O)C(=O)NCC(=O)NCC(=O)N1CCC[C@H]1C(=O)N[C@@H](CO)C(=O)N[C@@H](CO)C(=O)NCC(=O)N[C@@H](C)C(=O)N1CCC[C@H]1C(=O)N1CCC[C@H]1C(=O)N1CCC[C@H]1C(=O)N[C@@H](CO)C(N)=O [Example 12, N-ε^20-(2-(2-(2-(2-(2-(2-(17-carboxyheptadecanoylamino)ethoxy)ethoxy)acetylamino)ethoxy)ethoxy)acetyl)[Arg12,Leu^14,Arg^27,Gln^28,Lys^20]Exendin-4 (1-39)amide] (H-HGEGTFTSDLSRQLEEEAVK([AEEA-AEEA-C18 diacid])LFIEWLRQGGPSSGAPPPS-NH2; N-terminus assumed)	5.45
CC[C@H](C)[C@H](NC(=O)[C@H](Cc1ccccc1)NC(=O)[C@H](CC(C)C)NC(=O)[C@H](CCCNC(=N)N)NC(=O)[C@@H](NC(=O)[C@H](C)NC(=O)[C@H](CCC(=O)O)NC(=O)[C@H](CCC(=O)O)NC(=O)[C@H](CCC(=O)O)NC(=O)[C@H](CCCCNC(=O)COCCOCCNC(=O)COCCOCCNC(=O)CCCCCCCCCCCCCCCCC(=O)O)NC(=O)[C@H](CCC(N)=O)NC(=O)[C@H](CCCNC(=N)N)NC(=O)[C@H](CO)NC(=O)[C@H](CC(C)C)NC(=O)[C@H](CC(=O)O)NC(=O)[C@H](CO)NC(=O)[C@@H](NC(=O)[C@H](Cc1ccccc1)NC(=O)[C@@H](NC(=O)CNC(=O)[C@H](CCC(=O)O)NC(=O)CNC(=O)[C@@H](N)Cc1c[nH]cn1)[C@@H](C)O)[C@@H](C)O)C(C)C)C(=O)N[C@@H](CCC(=O)O)C(=O)N[C@@H](Cc1c[nH]c2ccccc12)C(=O)N[C@@H](CC(C)C)C(=O)N[C@H](C(=O)N[C@@H](CCCNC(=N)N)C(=O)NCC(=O)NCC(=O)N1CCC[C@H]1C(=O)N[C@@H](CO)C(=O)N[C@@H](CO)C(=O)NCC(=O)N[C@@H](C)C(=O)N1CCC[C@H]1C(=O)N1CCC[C@H]1C(=O)N1CCC[C@H]1C(=O)N[C@@H](CO)C(N)=O)C(C)C [Example 27] (H-HGEGTFTSDLSRQK([AEEA-AEEA-C18 diacid])EEEAVRLFIEWLVRGGPSSGAPPPS-NH2; N-terminus assumed)	3.65
CCCCCCCCCCCCCCCCCC(=O)N[C@@H](CCC(=O)NCCOCCOCC(=O)NCCOCCOCC(=O)NCCCC[C@H](NC(=O)[C@@H](NC(=O)[C@H](C)NC(=O)[C@H](CCC(=O)O)NC(=O)[C@H](CCC(=O)O)NC(=O)[C@H](CCC(=O)O)NC(=O)[C@H](CC(C)C)NC(=O)[C@H](CCC(N)=O)NC(=O)[C@H](CCCNC(=N)N)NC(=O)[C@H](CO)NC(=O)[C@H](CC(C)C)NC(=O)[C@H](CC(=O)O)NC(=O)[C@H](CO)NC(=O)[C@@H](NC(=O)[C@H](Cc1ccccc1)NC(=O)[C@@H](NC(=O)CNC(=O)[C@H](CCC(=O)O)NC(=O)CNC(=O)[C@@H](N)Cc1c[nH]cn1)[C@@H](C)O)[C@@H](C)O)C(C)C)C(=O)N[C@@H](CC(C)C)C(=O)N[C@@H](Cc1ccccc1)C(=O)N[C@H](C(=O)N[C@@H](CCC(=O)O)C(=O)N[C@@H](Cc1c[nH]c2ccccc12)C(=O)N[C@@H](CC(C)C)C(=O)N[C@@H](CCCNC(=N)N)C(=O)N[C@@H](CCC(N)=O)C(=O)NCC(=O)NCC(=O)N1CCC[C@H]1C(=O)N[C@@H](CO)C(=O)N[C@@H](CO)C(=O)NCC(=O)N[C@@H](C)C(=O)N1CCC[C@H]1C(=O)N1CCC[C@H]1C(=O)N1CCC[C@H]1C(=O)N[C@@H](CO)C(N)=O)[C@@H](C)CC)C(=O)O [Example 15] (H-HGEGTFTSDLSRQLEEEAVK([AEEA-AEEA-γGlu-Stearoyl])LFIEWLRQGGPSSGAPPPS-NH2)	0.044
